Assay results published in patent US20110182922A1, “PEPTIDES OF IL1 BETA AND TNF ALPHA AND METHOD OF TREATMENT USING SAME” (VAX CONSULTING, priority 2004, published 2011).
Bridge positions count the residues as written; N and C are the ends. Ends that are not written are not given here.

What was measured:
Assay type in all cases: in vivo
[1] = system: TNFα-dependent septic shock in mice; assay: model of endotoxinic shock (LPS with Galactosamine) after preimmunization; conditions: Balb/c mice preimmunized with KLH-coupled peptide, shock on day D50 by LPS with Galactosamine; control KLH alone; p=0.008
Method: 4 murine TNFα peptides coupled to the KLH carrier protein, including the cyclized peptide CVSRFAISYQEKVNLLSC (SEQ ID NO:15) called TNFα-6, were tested in a model of endotoxinic shock. For this purpose, Balb/c mice were preimmunized against these peptides on days D0, […], and D40. On day D50, the mice were subjected to shock, i.e. they were injected with LPS with Galactosamine. A control was carried out on mice immunized against KLH alone.
It is noted that all the mice died after two days, except for the group immunized against the TNFα-6 peptide where the mice were protected. The protection conferred by the immunization was very significant (p=0.008).

native mTNFα cytokine = assay: ELISA test of serum antibodies against native mTNFα after immunization; set-up: unit not given here; conditions: ELISA on serum day D50; groups of 4 mice, 20 ug peptide coupled to KLH, boosters D20 and D40
Method: (§1) 6 groups of 4 mice were immunized against 20 ug of the murine IL1β peptides IRQLHYRLRDEQQKSL (group 1) (SEQ ID NO:11), SFVQGEPSNDKIP (group 2) (SEQ ID NO:12), QYPKKKMEKRFVFNKIEV (group 3) (SEQ ID NO:13), IIDFTMESVSS (group 4) (SEQ ID NO:14), and 20 ug of the murine TNFα peptide KYLDFAESGQVY (group 5) (SEQ ID NO:6) all coupled to KLH. Group 6 corresponds to mice immunized by KLH alone. A booster was administered on days D20 and D40. On day D50 the mice were sacrificed and the antibodies directed against the native mTNFα cytokine and the native mIL1β cytokine in the serums were measured by an ELISA test.

native mIL1β cytokine = assay: ELISA test of serum antibodies against native mIL1β after immunization; set-up: unit not given here; conditions: ELISA on serum day D50; groups of 4 mice, 20 ug peptide coupled to KLH, boosters D20 and D40
Method: as §1

[2] = system: collagen arthritis induced in mice; assay: model of collagen arthritis after preimmunization; conditions: DBA1 mice preimmunized with KLH-coupled peptide, collagen in Freund's adjuvant D80 and D95, scored D100-D160; control KLH alone; p=0.0003, ANOVA test
Method: 3 murine IL1β peptides coupled to the KLH protein, including the cyclized IL1-6 peptide of sequence YCYISTSQAEHKPVFLGC (SEQ ID NO:16), were tested in a model of collagen arthritis. For this purpose, DBA1 mice were preimmunized against these peptides on days D0, D20, D40, […]. On day D80 the mice were immunized against collagen in Freund's adjuvant, and similarly on day D95. The development of arthritis was monitored between day D100 and day D160: twice weekly, the mice were examined and a score was attributed to them as a function of the state of inflammation of their joints (0=no inflammation, 1=slight inflammation, 2=average inflammation, 3=strong inflammation).

## CVSRFAISYQEKVNLLSC (disulfide 1-18 (inferred)) [TNFα-6, cyclized murine TNFα peptide]
[1]
  survival of mice subjected to septic shock (protection): protected

## IIDFTMESVSS [Group 4, murine IL1β peptide 142-152]
Native mTNFα cytokine
  Anti-TNFα response Average: 0.12
Native mIL1β cytokine
  Anti-IL1β response Average: 0.8

## IRQLHYRLRDEQQKSL [Group 1, murine IL1β peptide 3-18]
Native mTNFα cytokine
  Anti-TNFα response Average: 0.13
Native mIL1β cytokine
  Anti-IL1β response Average: 1.5

## KYLDFAESGQVY [Group 5, murine TNFα peptide 140-150]
Native mTNFα cytokine
  Anti-TNFα response Average: 1.3
Native mIL1β cytokine
  Anti-IL1β response Average: 0.31

## QYPKKKMEKRFVFNKIEV [Group 3, murine IL1β peptide 89-106]
Native mTNFα cytokine
  Anti-TNFα response Average: 0.18
Native mIL1β cytokine
  Anti-IL1β response Average: 1.6

## SFVQGEPSNDKIP [Group 2, murine IL1β peptide 45-57]
Native mTNFα cytokine
  Anti-TNFα response Average: 0.15
Native mIL1β cytokine
  Anti-IL1β response Average: 1.9

## VSRFAISYQEKVNLLS [SEQ ID NO:1, peptide area 80-95 of the murine TNFα cytokine]
[1]
  survival of mice subjected to septic shock (protection): capable of blocking TNFα-dependent septic shock in mice

## YCYISTSQAEHKPVFLGC (disulfide 2-18 (inferred); also: coupled to KLH carrier protein) [IL1β-6, cyclized murine IL1β peptide]
[2]
  clinical score of joint inflammation (protection with respect to control): strong protection level

## YISTSQAEHKPVFLG [SEQ ID NO:3, peptide area 121-135 of the murine IL1β cytokine]
[2]
  clinical score of joint inflammation (protection with respect to control): capable of blocking collagen arthritis induced in mice
